# Target: T1, hvYvoF (YvoF from Haloferax volcanii) (Haloferax volcanii, UniProt D4GZM3)
# T1 construct: full length, C-terminal His6 tag, pTA1228 vector, NdeI/XhoI; homologous expression in H. volcanii H1424, IMAC; printed cloning primers encode N-terminus MTDDDAAP and C-terminus DETDGA before LE of the XhoI site
# Test: […]-GGG acetylation, TLC and autoradiography
# Type: biochemical
# Settings: acetyl-CoA 0.25 mM, MgCl2 10 mM, 1300 mM NaCl, 0.2% Tween80, pH 8.0, 40 °C; labelled compound
# T1 sequence (D4GZM3 entry or part of it): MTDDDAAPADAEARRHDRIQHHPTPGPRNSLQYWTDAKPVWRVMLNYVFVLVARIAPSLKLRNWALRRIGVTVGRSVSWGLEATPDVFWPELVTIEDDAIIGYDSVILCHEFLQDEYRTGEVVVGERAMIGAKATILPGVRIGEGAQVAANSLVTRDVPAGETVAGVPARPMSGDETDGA
structure (smiles),measurement,value
"CC(C)=CCC/C(C)=C/CC/C(C)=C/CC/C(C)=C/COC[C@H](O)CO [GGG, geranylgeranylglycerol]","14C-GGG acetylation, TLC and autoradiography",GGG was gradually diacetylated (to Ac2‐GGG) by hvYvoF with increasing incubation time
